Results on 1 compound are retold here after patent publication US11666600B2, “Methods for culturing and/or differentiating hematopoietic stem cells into progenitors and uses thereof” (HEMA-QUEBEC, priority 2015, dated 2023).

Molecules are shown by their SMILES.

The subject of the test is Human G-CSF-mobilized peripheral blood CD34+ cells. As to the kind of experiment: Expansion of CD34+/CD41+ megakaryocytic progenitors from mobilized peripheral blood CD34+ cells. Particulars: 39° C. + PIC 35 nM; 14 days; SFEM + BS1; FIG. 5. The class given is cell-based. On the procedure: Human bone marrow and G-CSF-mobilized peripheral blood CD34+ cells were purchased from AllCells.
Human CD34+-enriched cells (purity 90%) were seeded in 24-well plates at 100 000 cells/mL in expansion medium consisting of either (1) StemSpan™ ACF (ACF; […] Technologies) supplemented with the OMPC cytokine cocktail (Robert et al., 2011), or (2) StemSpan™ SFEM ([…] Technologies) supplemented with the BS1 megakaryocyte expansion and differentiation cocktail (Cortin et al., 2005). OMPC consists of 35 ng/mL thrombopoietin (TPO; Feldan Therapeutics), 10 ng/mL stem cell factor (SCF; Peprotech), and 11 ng/mL human FMS-like tyrosine kinase 3 ligand (FLT3, Peprotech). […]
Cellular counts and viability were determined by adding Solution 18 (Acridine Orange and DAPI solution, ChemomMetec) and using NucleoCounter™ NC-250 for detection (ChemomMetec).
For cells expanded in conditions favoring differentiation towards the MK lineage, surface markers were detected using the following antibodies: CD34-FITC, CD41a-APC and CD42b-PE. […] All samples were analyzed on an Accuri™ C6 flow cytometer (BD Biosciences), and raw data were analyzed with FCS Express 5 Flow Research Edition software from at least 15 000 viable cell events acquired for each sample. […]
Cellular counts and viability were determined as described in Example 6.5.

As for `Cl.Cn1nnc(-c2ccc3c(c2)[nH]c2nc(Cc4ccccc4)nc(N[C@H]4CC[C@H](N)CC4)c23)n1` [PIC, (1r,4r)-N1-(2-benzyl-7-(2-methyl-2H-tetrazol-5-yl)-9H-pyrimido[4,5-b]indol-4-yl)cyclohexane-1,4-diamine hydrochloride], the “combined use of mild hyperthermia and PIC on expansion of CD34+/CD41+ cells” value was “synergistic effect”.
